Read-outs that look alike come from different tables or passages of the source.
Columns and labels:
[1] = biological target: T1, hCE1 (Homo sapiens, UniProt P23141); experiment: hCE1 inhibition assay, DME hydrolysis in human liver microsomes; type: biochemical; set-up: tissue Celsis (Shanghai, China); host or cells: human liver microsomes (HLM);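 also: carboxylesterase inhibition read out as probe hydrolysis, with DME serving as hCE1 substrate and DDAB as hCE2 substrate, in DMSO below 2% (V/V)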
T1 sequence (P23141 18-567): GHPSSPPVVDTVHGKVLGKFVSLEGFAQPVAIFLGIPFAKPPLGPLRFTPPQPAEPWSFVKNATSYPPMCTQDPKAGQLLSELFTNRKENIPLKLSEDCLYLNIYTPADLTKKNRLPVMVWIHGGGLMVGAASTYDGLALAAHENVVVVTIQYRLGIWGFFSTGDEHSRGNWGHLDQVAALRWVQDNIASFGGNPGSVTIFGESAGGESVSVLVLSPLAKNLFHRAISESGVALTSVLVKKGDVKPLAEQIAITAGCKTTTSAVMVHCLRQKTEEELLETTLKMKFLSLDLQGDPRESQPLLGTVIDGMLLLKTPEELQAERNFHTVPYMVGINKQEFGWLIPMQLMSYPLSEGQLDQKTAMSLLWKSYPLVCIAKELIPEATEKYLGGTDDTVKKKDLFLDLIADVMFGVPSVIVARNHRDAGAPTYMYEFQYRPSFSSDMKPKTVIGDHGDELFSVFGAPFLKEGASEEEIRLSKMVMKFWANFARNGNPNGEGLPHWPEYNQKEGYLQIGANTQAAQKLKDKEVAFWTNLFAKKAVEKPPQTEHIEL
Description: (§1) All fluorescence-based assays were performed on Synergy H^1 Hybrid Multi-Mode Microplate Reader (BioTek, USA).
(§2) The inhibitory effects toward CEs were assayed using DME and DDAB as the specific probe substrates for hCE1 and hCE2, respectively. […] Control incubations without BNPP were also performed. After incubation, ice-cold acetonitrile (equal volume of incubation mixture, 200 μL) was added to terminate the reaction. The mixture was then centrifuged at 20,000 g for 20 min at 4°C. All these compounds dissolved in DMSO, and the final concentration of DMSO was <2% (V/V). Aliquots of the supernatant were then taken for further microplate reader analyses. […] First, each of the potential esterase inhibitors was pre-incubated with HLM at 37°C for 10 min with shaking in microplate reader. Then DME was added to start the reaction. After incubation at 37°C for 10 min in a shaking bath, LDR (equal volume of incubation mixture, 50 μL) was added to terminate the reaction, and luminescence measurements were conducted as described above.

[2] = biological target: T2, hCE2 (Homo sapiens, UniProt O00748); experiment: hCE2 inhibition assay, DDAB hydrolysis in human liver microsomes; type: biochemical
T2 construct: tissue Celsis (Shanghai, China); host or cells: human liver microsomes (HLM)
T2 sequence (O00748 27-559): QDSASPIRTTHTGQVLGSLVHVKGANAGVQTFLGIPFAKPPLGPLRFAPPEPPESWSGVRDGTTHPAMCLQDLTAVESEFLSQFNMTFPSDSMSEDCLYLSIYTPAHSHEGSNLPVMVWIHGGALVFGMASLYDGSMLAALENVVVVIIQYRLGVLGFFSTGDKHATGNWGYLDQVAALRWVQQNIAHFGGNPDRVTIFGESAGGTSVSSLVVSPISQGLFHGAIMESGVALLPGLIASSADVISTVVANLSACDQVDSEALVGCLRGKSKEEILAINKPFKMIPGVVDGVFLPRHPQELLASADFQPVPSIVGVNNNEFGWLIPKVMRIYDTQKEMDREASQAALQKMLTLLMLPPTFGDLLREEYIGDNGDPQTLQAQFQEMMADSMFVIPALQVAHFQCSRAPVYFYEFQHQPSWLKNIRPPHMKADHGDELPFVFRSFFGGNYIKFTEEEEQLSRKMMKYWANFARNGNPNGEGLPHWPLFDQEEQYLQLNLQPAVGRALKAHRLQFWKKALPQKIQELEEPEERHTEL
Description: as §1, §2

[3] = DME as probe substrate, HLM, averages of at least three experiments, read-out: IC50 (hCE1)
[4] = log of the experimental IC50 in μM, used for 3D-QSAR
[5] = DDAB as probe substrate, HLM, averages of at least three experiments, read-out: IC50 (hCE2)

In the case of `COC(=O)C12CCC(C)C(C)C1C1=CC(=O)C3C4(C)CCC(=O)C(C)(C)C4CCC3(C)C1(C)CC2` (stereo not drawn) [Compound 25, 3,11-dioxo-urs-12-en-28-oic acid methyl ester], the IC50 [1, 3] is reported as 33.2 µM, the “Observed Log(IC50_hCE1)” value [1, 4] is reported as 1.521 μM and the IC50 [2, 5] is reported as 11.9 µM.
In the case of `C=C(CCC(C(=O)O)C1C(O)CC2(C)C3=CCC4C(C)(C)C(=O)CCC4(C)C3=CCC12C)C(C)C` (stereo not drawn) [Compound 12], the IC50 [1, 3] is reported as 58.6 µM, the “Observed Log(IC50_hCE1)” value [1, 4] is reported as 1.7679 μM and the IC50 [2, 5] is reported as over 100 µM.
With `CC1CCC2(C(=O)O)CCC3(C)C(=CCC4C5(C)CCC(=O)C(C)(C)C5CCC43C)C2C1C` (stereo not drawn) [Compound 21, 3-oxo-urs-12-en-28-oic acid] the IC50 [1, 3] was 0.037 µM, the “Observed Log(IC50_hCE1)” value [1, 4] was -1.4318 μM and the IC50 [2, 5] was 9.56 µM.
`CC1(C)CCC2(C(=O)O)CCC3(C)C(=CCC4C5(C)CCC(=O)C(C)(C)C5CCC43C)C2C1` (stereo not drawn) [Compound 15, 3-oxo-olean-12-en-28-oic acid] was tested, and the “Observed Log(IC50_hCE1)” value [1] was -0.8861 μM, the Selectivity [1] was 123.07 and the IC50 [1, 3] was 0.13 µM. It also gave an IC50 [2, 5] of 16.1 µM.
In the case of `C=C(CCC(C(=O)O)C1C(O)CC2(C)C3=C(CCC12C)C1(C)CCC(OC(C)=O)C(C)(C)C1CC3)C(C)C` (stereo not drawn) [Compound 10], the IC50 [1, 3] is reported as 21.7 µM and the “Observed Log(IC50_hCE1)” value [1, 4] is reported as 1.337 μM.
With `CC1(C(=O)O)CCC2(C)CCC3(C)C(=CCC4C5(C)CCC(OC(=O)CCC(=O)O)C(C)(C)C5CCC43C)C2C1` (stereo not drawn) [Compound 27, 3β-O-(β-carboxypropionyl)-olean-12-en-30-oic acid] the IC50 [1, 3] was 6.94 µM, the “Observed Log(IC50_hCE1)” value [1, 4] was 0.8414 μM and the IC50 [2, 5] was 3.16 µM.
With `COC(=O)C12CCC(C)C(C)C1C1=CCC3C4(C)CCC(=O)C(C)(C)C4CCC3(C)C1(C)CC2` (stereo not drawn) [Compound 24, 3-oxo-urs-12-en-28-oic acid methyl ester] the IC50 [1, 3] was 0.9 µM, the “Observed Log(IC50_hCE1)” value [1, 4] was -0.04576 μM and the IC50 [2, 5] was over 100 µM.
For `C=C(CCC(C(=O)O)C1C(O)CC2(C)C3=CCC4C(C)(CCC(OC(C)=O)C4(C)C)C3=CCC12C)C(C)C` (stereo not drawn) [Compound 11], the IC50 [1, 3] was 27.6 µM, the “Observed Log(IC50_hCE1)” value [1, 4] was 1.441 μM and the IC50 [2, 5] was over 100 µM.
For `CC1(C)CCC2(C(N)=O)CCC3(C)C(=CCC4C5(C)CCC(O)C(C)(C)C5CCC43C)C2C1` (stereo not drawn) [Compound 18, 3β-hydroxy-olean-12-en-28-amide], the IC50 [1, 3] was 3.21 µM, the “Observed Log(IC50_hCE1)” value [1, 4] was 0.5065 μM and the IC50 [2, 5] was 4.11 µM.
With `C[C@H]1[C@H](C)CC[C@]2(C)CC[C@]3(C)C(=CC(=O)[C@@H]4[C@@]5(C)CC[C@@H](O)[C@](C)(C(=O)O)[C@@H]5CC[C@]43C)[C@H]12` [Compound 6, 11-keto-β-boswellic acid] the IC50 [1, 3] was 124 µM and the “Observed Log(IC50_hCE1)” value [1, 4] was 2.092 μM.
`C[C@H](CC(=O)C[C@@H](C)[C@H]1C[C@H](O)[C@@]2(C)C3=C(C(=O)C[C@]12C)[C@@]1(C)CCC(=O)C(C)(C)[C@@H]1C[C@@H]3O)C(=O)O` [Compound 13] gave an IC50 [1] of over 400 µM and an IC50 [2] of over 100 µM.
`CC1(C)CCC2(C(=O)O)C(O)CC3(C)C(=CCC4C5(C)CC(O)C(O)C(C)(CO)C5CCC43C)C2C1` (stereo not drawn) [Compound 3, polygalacic acid] was tested, and the IC50 [1, 3] was 64.7 µM, the “Observed Log(IC50_hCE1)” value [1, 4] was 1.811 μM and the IC50 [2, 5] was over 100 µM.
For `COC(=O)C12CCC(C)(C)CC1C1=CCC3C4(C)CCC(O)C(C)(C)C4CCC3(C)C1(C)CC2` (stereo not drawn) [Compound 17, 3β-hydroxy-olean-12-en-28-oic acidmethyl ester], the IC50 [1, 3] was 6.23 µM, the “Observed Log(IC50_hCE1)” value [1, 4] was 0.7945 μM and the IC50 [2, 5] was 5.7 µM.
For `CC1(C)[C@@H](O)CC[C@]2(C)[C@H]3C(=O)C=C4[C@@H]5C[C@@](C)(C(=O)O)CC[C@]5(C)CC[C@@]4(C)[C@]3(C)CC[C@@H]12` [Compound 4, glycyrrhetic acid], the IC50 [1, 3] was 13 µM and the “Observed Log(IC50_hCE1)” value [1, 4] was 1.1126 μM.
Work on `C[C@H]1[C@H](C)CC[C@]2(C)CC[C@]3(C)C(=CC[C@@H]4[C@@]5(C)CC[C@@H](O)[C@](C)(C(=O)O)[C@@H]5CC[C@]43C)[C@H]12` [Compound 5, β-boswellic acid] yielded an IC50 [1, 3] of over 400 µM.
For `C[C@H](CC(=O)C[C@@H](C)[C@H]1CC(=O)[C@@]2(C)C3=C(C(=O)C[C@]12C)[C@@]1(C)CC[C@H](O)C(C)(C)[C@@H]1C[C@@H]3O)C(=O)O` [Compound 14], the IC50 [1, 3] was over 400 µM and the IC50 [2, 5] was over 100 µM.
For `CC1(C(=O)O)CCC2(C)CCC3(C)C(=CCC4C5(C)CCC(O)C(C)(C)C5CCC43C)C2C1` (stereo not drawn) [Compound 26], the IC50 ([1]; IC50 (hCE1), DME as probe substrate, HLM, averages of at least three experiments) was 8.94 µM and the “Observed Log(IC50_hCE1)” value [1, 4] was 0.9513 μM.
`CC1(C)CCC2(C(=O)O)CCC3(C)C(=CCC4C5(C)CCC(OC(=O)CCC(=O)O)C(C)(C)C5CCC43C)C2C1` (stereo not drawn) [Compound 20, 3β-O-(β-carboxypropionyl)-olean-12-en-28-oic acid] was tested, and the IC50 [1, 3] was 0.017 µM, the “selectivity over hCE2” value ([1]; hCE1 versus hCE2, values of the text) was 3296 fold and the “Observed Log(IC50_hCE1)” value [1, 4] was -1.77 μM. The IC50 [2, 5] was 56 µM.
`CC1=C(O)C(=O)C=C2C1=CC=C1[C@@]2(C)CC[C@@]2(C)[C@@H]3C[C@](C)(C(=O)O)CC[C@]3(C)CC[C@]12C` [Compound 7, celastrol] was tested, and the IC50 [1, 3] was 4.43 µM and the “Observed Log(IC50_hCE1)” value [1, 4] was 0.6464 μM.
For `COC(=O)C12CCC(C)C(C)C1C1=CCC3C4(C)CCC(O)C(C)(C)C4CCC3(C)C1(C)CC2` (stereo not drawn) [Compound 23, 3β-hydroxy-urs-12-en-28-oic acid methyl ester], the IC50 [1, 3] was 1.83 µM, the “Observed Log(IC50_hCE1)” value [1, 4] was 0.2625 μM and the IC50 [2, 5] was 11.9 µM.
Work on `O=[N+]([O-])c1ccc(OP(=O)(O)Oc2ccc([N+](=O)[O-])cc2)cc1` [Compound 28, Bis-p-nitrophenyl phosphate, reference compound] yielded an IC50 [1, 3] of 0.031 µM.
`CC1(C)CC[C@]2(C(=O)O)CC[C@]3(C)C(=CC[C@@H]4[C@@]5(C)CC[C@H](O)C(C)(C)[C@@H]5CC[C@]43C)[C@@H]2C1` [Compound 1, oleanolic acid] was tested, and the IC50 [1, 3] was 0.28 µM and the “Observed Log(IC50_hCE1)” value [1, 4] was -0.5528 μM.
Molecule `CC(C)=CCCC(C)(O)C1CCC2(C)C1C(O)CC1C3(C)CCC(O)C(C)(C)C3C(O)CC12C` (stereo not drawn) [Compound 9] has an IC50 [1, 3] of over 500 µM.
In the case of `CC1(C)CCC2(CO)CCC3(C)C(=CCC4C5(C)CCC(O)C(C)(C)C5CCC43C)C2C1` (stereo not drawn) [Compound 16, 3β-olean-12-ene-3,28-diol], the IC50 [1, 3] is reported as 2.41 µM, the “Observed Log(IC50_hCE1)” value [1, 4] is reported as 0.382 μM and the IC50 [2, 5] is reported as 6.12 µM.
With `CC(=O)OC1CCC2(C)C(CCC3(C)C2CC=C2C4CC(C)(C)CCC4(C(=O)O)CCC23C)C1(C)C` (stereo not drawn) [Compound 19, 3β-O-acetyl-olean-12-en-28-oic acid] the IC50 [1, 3] was 0.19 µM, the “Observed Log(IC50_hCE1)” value [1, 4] was -0.7212 μM and the IC50 [2, 5] was 10.2 µM.
Molecule `CC(C)=CCCC(C)(O)C1CCC2(C)C1C(O)CC1C3(C)CCC(O)C(C)(C)C3CCC12C` (stereo not drawn) [Compound 8] has an IC50 [1, 3] of over 500 µM.
For `C[C@H]1[C@H](C)CC[C@]2(C(=O)O)CC[C@]3(C)C(=CC[C@@H]4[C@@]5(C)CC[C@H](O)C(C)(C)[C@@H]5CC[C@]43C)[C@H]12` [Compound 2, ursolic acid], the IC50 [1, 3] was 0.24 µM and the “Observed Log(IC50_hCE1)” value [1, 4] was -0.6198 μM.

Reference: article PMC5491650, “Structure-Activity Relationships of Pentacyclic Triterpenoids as Potent and Selective Inhibitors against Human Carboxylesterase 1” (Frontiers in Pharmacology, 2017)
